Results from PubChem BioAssay (NCI).
Where “and” joins values, the source holds several entries; their conditions need not be identical. Equal entries are not always repeated.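 Grown in 96-well plates, cells were treated for 48 hours with each compound at five concentrations. Insufficient inhibition: endpoint recorded as highest concentration tested. The concentration for 50% growth inhibition is given as GI50. Definition used: TGI = concentration required for complete inhibition of growth.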

Key:
Experiment in all cases: growth of human tumour cells (NCI), 48 h
MOLT-4 leukemia = test system: MOLT-4 leukemia
HCT-15 colon = test system: HCT-15 colon
HOP-92 NSCLC = test system: HOP-92 NSCLC
SF-295 CNS = test system: SF-295 CNS
T-47D breast = test system: T-47D breast
786-0 renal = test system: 786-0 renal
HCT-116 colon = test system: HCT-116 colon
MALME-3M melanoma = test system: MALME-3M melanoma
SK-OV-3 ovarian = test system: SK-OV-3 ovarian
OVCAR-5 ovarian = test system: OVCAR-5 ovarian

Row | Compound | GI50 (MOLT-4 leukemia) | TGI (MOLT-4 leukemia) | GI50 (HCT-15 colon) | TGI (HCT-15 colon) | GI50 (HOP-92 NSCLC) | TGI (HOP-92 NSCLC) | GI50 (SF-295 CNS) | TGI (SF-295 CNS) | GI50 (T-47D breast) | TGI (T-47D breast) | GI50 (786-0 renal) | TGI (786-0 renal) | GI50 (HCT-116 colon) | TGI (HCT-116 colon) | GI50 (MALME-3M melanoma) | TGI (MALME-3M melanoma) | GI50 (SK-OV-3 ovarian) | TGI (SK-OV-3 ovarian) | GI50 (OVCAR-5 ovarian) | TGI (OVCAR-5 ovarian)
1 | CC(C)(C)[Si](C)(C)OC1[C@@H](O[Si](C)(C)C(C)(C)C)[C@@H](CNC(=O)NC(=O)NC(=O)CCl)O[C@H]1n1cnc2c(NC(=O)Nc3ccccc3)ncnc21 (some centres undefined) | 1170 nM | 2.53 µM | 9.28 µM | 22.2 µM | 842 nM | 1.98 µM | 4.91 µM | 15 µM | 8.59 µM | 17.5 µM | 1.3 µM | 4.76 µM | 1850 nM | 7.41 µM | 1340 nM | 3.64 µM | 9.51 µM | 17.5 µM | 6.41 µM | 14.1 µM
2 | C=C1C[C@@H](O)[C@@H](Br)C(C)(C)[C@]12CCC(C)(Br)C(Cl)C2 (some centres undefined) | 14200 nM | > 50 µM and 34.5 µM | 23.7 µM | > 50 µM and 52.4 µM | 20300 nM | > 50 µM and 39.3 µM | 17.9 µM | > 50 µM and 34.9 µM | 19 µM | > 50 µM and 49.3 µM | 17.9 µM | > 50 µM and 33.7 µM | 19300 nM | > 50 µM and 36.2 µM | 16500 nM | > 50 µM and 33.4 µM | 24 µM | > 50 µM and 64.6 µM | 1.23 µM | 26.6 µM and 8.52 µM
3 | CCCCCCCCCCCCNC(=O)N[C@H](C(=O)N[C@H]1/C=C/CCNC(=O)/C=C/[C@H](C)NC1=O)C(C)C | 44.8 nM | 1.13 µM | 2.76 µM | > 100 µM | 123 nM | 0.353 µM | 0.239 µM | 1.45 µM | 0.144 µM | 0.36 µM | 0.276 µM | 5.39 µM | 36.5 nM | 0.163 µM | 422 nM | 2.99 µM | 0.339 µM | 1.99 µM | 0.0271 µM | 0.114 µM
4 | C[C@]12CCCN1CC1=NNC(=O)c3cc(F)cc4[nH]c2c1c34 | 22300 nM | > 100 µM | 21.2 µM | > 100 µM | 2710 nM | 20.7 µM | 16.1 µM | 51.1 µM | 20.6 µM | 91.9 µM | 26.2 µM | > 100 µM | 14200 nM | > 100 µM | 28900 nM | 70.5 µM | 25.9 µM | > 100 µM | 20.2 µM | > 100 µM
5 | O=C(O)c1ccc(NCc2nc3ccccc3[nH]2)cc1 | > 100000 nM | > 100 µM | > 100 µM | > 100 µM | > 100000 nM | > 100 µM | > 100 µM | > 100 µM | > 100 µM | > 100 µM | > 100 µM | > 100 µM | > 100000 nM | > 100 µM | 1250 nM | 7.52 µM | > 100 µM | > 100 µM | > 100 µM | > 100 µM
6 | COc1ccc(Cc2cc(OC)c(OC)c(OC)c2)cc1 | – | 23.9 µM | – | > 30.9 µM | – | 85.6 µM | – | > 29.4 µM | – | 89.8 µM | – | > 100 µM | – | 12.4 µM | – | > 100 µM | – | 23.2 µM | – | > 100 µM
7 | Cc1cc(O[C@@H]2O[C@@H](C)[C@H](O)[C@@H](O)[C@H]2O)c2c3c(c(O[C@@H]4O[C@@H](C)[C@H](O)[C@@H](O)[C@H]4O)cc2c1)C(=O)c1c(O)cccc1C3=O | > 30000 nM | > 30 µM | > 30 µM | > 30 µM | > 30000 nM | > 30 µM | > 30 µM | > 30 µM | > 30 µM | > 30 µM | > 30 µM | > 30 µM | > 30000 nM | > 30 µM | > 30000 nM | > 30 µM | > 30 µM | > 30 µM | > 30 µM | > 30 µM
8 | O=C(NCCCl)NCCN1c2nc3ccccc3cc2Sc2cc3ccccc3nc21 | 861 nM | – | 2.74 µM | > 40 µM | 722 nM | 7.47 µM | 0.569 µM | 3.75 µM | 2.04 µM | 12 µM | 1.55 µM | 4.89 µM | 800 nM | 3.43 µM | 968 nM | 15.4 µM | 4.41 µM | > 44.3 µM | 4.24 µM | > 44.5 µM
9 | COc1ccc2nc3cc(Cl)ccc3c(NCCNCC(O)CO)c2c1 (centres undefined) | 408 nM | 10.7 µM | 5.36 µM | 20 µM | 2800 nM | 7.18 µM | 2.33 µM | 12.3 µM | 1.4 µM | 6.86 µM | 2.34 µM | 12.3 µM | 391 nM | 2.83 µM | 1720 nM | 5.93 µM | 2.43 µM | 7.95 µM | 2.16 µM | 11.2 µM
10 | CC1NC(C(=O)O)Cc2cc(O)c(O)cc21 (centres undefined) | – | > 100 µM | – | > 100 µM | – | > 100 µM | – | > 100 µM | – | > 100 µM | – | > 100 µM | – | > 100 µM | – | > 100 µM | – | > 100 µM | – | > 100 µM
11 | O=C(CN1CCN(CCN2C(=O)c3cccc4cccc(c34)C2=O)CC1)Nc1ccc2ncsc2c1 | 2870 nM | 15.3 µM | 5.05 µM | 20.1 µM | 5240 nM | > 100 µM | 4.9 µM | 20.7 µM | 5.12 µM | 30.5 µM | 5.82 µM | 20.8 µM | 3570 nM | 16.4 µM | 7470 nM | 24 µM | 8.35 µM | 23.3 µM | 10.5 µM | > 100 µM
